Columns and labels:
[1] = target: ALK tyrosine kinase receptor (Homo sapiens, UniProt Q9UM73)
Description: Inhibition of recombinant ALK (unknown origin) using peptide substrate measured after 1 hr by LanthaScreen assay

KARPAS-299 = assay: cells; conditions: Homo sapiens, KARPAS-299, 72 h
Description: Antiproliferative activity against human KARPAS299 cells after 3 days by MTT assay

Sequence of ALK tyrosine kinase receptor (Q9UM73 whole entry): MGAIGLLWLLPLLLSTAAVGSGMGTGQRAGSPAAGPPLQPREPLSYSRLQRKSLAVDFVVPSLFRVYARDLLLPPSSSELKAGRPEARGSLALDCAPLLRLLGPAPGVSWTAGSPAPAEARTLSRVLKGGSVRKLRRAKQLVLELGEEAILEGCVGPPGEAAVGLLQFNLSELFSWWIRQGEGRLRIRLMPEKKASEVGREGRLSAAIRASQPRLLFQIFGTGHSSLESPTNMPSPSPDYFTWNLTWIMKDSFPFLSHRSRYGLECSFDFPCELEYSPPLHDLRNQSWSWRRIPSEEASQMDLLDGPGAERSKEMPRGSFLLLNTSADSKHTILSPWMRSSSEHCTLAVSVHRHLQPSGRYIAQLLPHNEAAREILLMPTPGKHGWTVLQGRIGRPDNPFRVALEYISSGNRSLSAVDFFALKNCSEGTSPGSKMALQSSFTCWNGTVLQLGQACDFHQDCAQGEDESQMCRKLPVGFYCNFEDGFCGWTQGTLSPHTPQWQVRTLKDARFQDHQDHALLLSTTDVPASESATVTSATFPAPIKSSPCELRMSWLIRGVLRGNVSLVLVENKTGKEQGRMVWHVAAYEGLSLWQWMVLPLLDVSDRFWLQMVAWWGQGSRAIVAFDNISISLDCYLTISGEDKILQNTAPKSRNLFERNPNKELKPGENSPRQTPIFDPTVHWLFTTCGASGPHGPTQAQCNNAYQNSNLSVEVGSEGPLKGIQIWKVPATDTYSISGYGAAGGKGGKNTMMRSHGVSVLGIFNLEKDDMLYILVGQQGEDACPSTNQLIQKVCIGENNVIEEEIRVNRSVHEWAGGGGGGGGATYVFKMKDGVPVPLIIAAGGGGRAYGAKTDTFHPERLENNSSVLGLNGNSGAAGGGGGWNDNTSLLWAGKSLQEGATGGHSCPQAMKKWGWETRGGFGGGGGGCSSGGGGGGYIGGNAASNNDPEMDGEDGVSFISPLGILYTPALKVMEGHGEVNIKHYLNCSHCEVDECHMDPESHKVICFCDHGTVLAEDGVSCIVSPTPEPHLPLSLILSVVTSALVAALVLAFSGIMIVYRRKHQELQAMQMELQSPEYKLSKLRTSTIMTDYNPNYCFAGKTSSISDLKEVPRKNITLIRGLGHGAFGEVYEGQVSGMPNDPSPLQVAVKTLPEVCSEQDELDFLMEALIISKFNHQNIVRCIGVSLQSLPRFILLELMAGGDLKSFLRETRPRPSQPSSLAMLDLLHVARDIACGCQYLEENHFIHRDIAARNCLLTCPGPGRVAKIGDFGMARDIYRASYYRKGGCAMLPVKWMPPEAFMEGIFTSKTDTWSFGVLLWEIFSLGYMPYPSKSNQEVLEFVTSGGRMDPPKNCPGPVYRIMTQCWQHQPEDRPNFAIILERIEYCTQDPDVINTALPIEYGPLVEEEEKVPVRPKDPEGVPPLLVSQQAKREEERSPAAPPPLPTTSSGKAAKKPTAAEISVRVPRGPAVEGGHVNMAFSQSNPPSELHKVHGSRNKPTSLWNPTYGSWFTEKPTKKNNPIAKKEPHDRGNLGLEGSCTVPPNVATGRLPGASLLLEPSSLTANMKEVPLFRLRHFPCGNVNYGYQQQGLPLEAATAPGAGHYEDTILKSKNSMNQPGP

Row | Compound | IC50 [1] [µM] | IC50 (KARPAS-299) [µM]
1 | CC(C)N1CCN(c2ccc(-c3n[nH]c4nc(-c5ccc(O)c(F)c5)ccc34)cc2)CC1 | 0.00158 | > 2
2 | CC(C)N1CCN(c2ccc(-c3n[nH]c4nc(-c5cc(F)c(O)c(F)c5)ccc34)cc2)CC1 | 0.649 | 0.149
3 | Oc1ccc(-c2ccc3c(-c4ccc(Cl)cc4)n[nH]c3n2)cc1 | > 2 | 
4 | Oc1ccc(-c2ccc3c(-c4ccccc4)n[nH]c3n2)cc1 | 0.251 | 0.0243
5 | COc1ccc(-c2n[nH]c3nc(-c4ccc(O)cc4)ccc23)cc1 | 0.239 | 
6 | Oc1ccc(-c2ccc3c(-c4ccc(O)cc4)n[nH]c3n2)cc1 | 0.13 | 
7 | CN1CCN(Cc2ccc(-c3n[nH]c4nc(-c5ccc(O)cc5)ccc34)o2)CC1 | 0.194 | 
8 | CC(C)N1CCN(c2ccc(-c3n[nH]c4nc(-c5ccc(N)cc5)ccc34)cc2)CC1 | 0.218 | > 10
9 | COc1cc(N2CCN(C(C)C)CC2)ccc1-c1n[nH]c2nc(-c3ccc(O)c(F)c3)ccc12 | 0.0531 | 0.263
10 | Oc1ccc(-c2ccc3c(-c4ccc(CN5CCCCC5)o4)n[nH]c3n2)cc1 | 0.394 | 
11 | Oc1ccc(-c2ccc3c(-c4ccc(N5CCOCC5)cc4)n[nH]c3n2)cc1 | 0.425 | 
12 | OCC1CCCCN1Cc1ccc(-c2n[nH]c3nc(-c4ccc(O)cc4)ccc23)o1 (stereo not drawn) | 0.568 | 
13 | CC(C)N1CCN(c2ccc(-c3n[nH]c4nc(-c5ccc(C(C)(C)O)cc5)ccc34)cc2)CC1 | > 2 | 105
14 | CC(C)N1CCN(c2ccc(-c3n[nH]c4nc(-c5ccc(O)cc5)ccc34)cc2)CC1 | 0.0474 | 
15 | Oc1ccc(-c2ccc3c(-c4cnn(C5CCNCC5)c4)n[nH]c3n2)cc1 | 0.0138 | 0.34
16 | CN(CCO)Cc1ccc(-c2n[nH]c3nc(-c4ccc(O)cc4)ccc23)o1 | 0.0832 | 
17 | COc1cc(N2CCN(C(C)C)CC2)ccc1-c1n[nH]c2nc(-c3ccc(O)cc3)ccc12 | 0.027 | 2.85

Further lines, results first:

Row | IC50 [1] [µM] | IC50 (KARPAS-299) [µM] | Compound
18 | 0.336 |  | Oc1ccc(-c2ccc3c(-c4ccc(F)cc4)n[nH]c3n2)cc1
19 | 0.339 |  | Oc1ccc(-c2ccc3c(-c4ccc(N5CCCCC5)cc4)n[nH]c3n2)cc1
20 | 0.0539 |  | Cc1ccc(-c2n[nH]c3nc(-c4ccc(O)cc4)ccc23)o1
21 | 0.253 |  | Oc1ccc(-c2ccc3c(-c4ccc(CN5CCCC5)o4)n[nH]c3n2)cc1
22 | 0.103 |  | CC(C)N1CCN(Cc2ccc(-c3n[nH]c4nc(-c5ccc(O)cc5)ccc34)o2)CC1
23 | > 2 |  | CC(C)N1CCN(c2ccc(-c3n[nH]c4nc(-c5ccc(F)cc5)ccc34)cc2)CC1
24 | 0.0941 |  | Oc1ccc(-c2ccc3c(-c4ccc(CN5CCOCC5)o4)n[nH]c3n2)cc1
25 | > 2 | > 2 | CC(C)N1CCN(c2ccc(-c3n[nH]c4nc(-c5ccc(C#N)cc5)ccc34)cc2)CC1
26 | 0.0396 | 2.1 | Oc1ccc(-c2ccc3c(-c4cnn(C5CCNCC5)c4)n[nH]c3n2)cc1F
27 | > 2 | > 10 | CC(C)N1CCN(c2ccc(-c3n[nH]c4nc(-c5ccc(Cl)cc5)ccc34)cc2)CC1

Reference: ChEMBL document CHEMBL4368941, “Discovery of 3,6-diaryl-1H-pyrazolo[3,4-b]pyridines as potent anaplastic lymphoma kinase (ALK) inhibitors” (Bioorg Med Chem Lett, 2019)
